Columns and labels:
[1] = system: stimulated CD8+ T cells from WT vs. Sirt2−/− Pmel mice; test: IFN-γ ELISPOT assay of stimulated CD8+ T cells from WT vs. Sirt2−/− Pmel mice; format: cell-based, mouse; conditions: activated T cells, Sirt6i vs. vehicle, FIG. 3C
Description: (§1) FIG. 3: Sirtuins in the immune system. A, WB of Sirt1-3,5-7 expression in activated CD3+ T cells from WT vs. Sirt2−/− mice. ECAR measured by Seahorse analyzer (B) and IFN-γ ELISPOT assay (C) in stimulated CD8+ T cells from WT vs. Sirt2−/− Pmel mice treated with vehicle (Ctl), or Sirt6 inhibitor (Sirt6i). *P<0.05, **P<0.01, ****P<0.0001.
The number of IFN-γ producing cells was evaluated in an ELISPOT assay. Briefly, mouse TILs were plated at 1×10^5 cells and co-cultured with 1×10^3 irradiated B16F10 tumor cells (50 Gray) in the presence of the indicated concentrations of OSS, in a 96-well nitrocellulose flat-bottomed plate (ELISPOT plate, Millipore) pre-coated with an anti-mouse IFN-γ antibody (AN-18, Mabtech, Inc.) and incubated for 48 hr at 37° C. For Pmel T cells, splenocytes were first stimulated with gp100 (1 μg/ml, Anaspec) for 48 hr in the presence of the indicated concentrations of OSS and then transferred to the ELISPOT plate pre-coated with an anti-mouse IFN-γ antibody (AN-18, Mabtech, Inc.) for an additional 48 hr. […] After washing steps and successive biotinylated anti-IFN-γ antibody (R4-6A2, Mabtech, Inc.) and Streptavidin-HRP (BD Bioscience) labeling, spots were detected using AEC Substrate Kit (BD Biosciences) and counted using an AID ELISPOT Reader System (Autoimmun Diagnostika GmbH).

[2] = system: patient-derived human NSCLC tumor cells; test: LDH cytotoxic assay of human NSCLC TILs co-cultured with autologous tumor cells; format: cell-based; conditions: ex vivo expanded autologous TILs co-cultured with patient-derived NSCLC tumor cells
Description: Evaluation of functional cytotoxic activity was performed using Pierce™ LDH Cytotoxicity Assay Kit (Thermo Fisher Scientific) according to the manufacturer's protocol. B16F10 cells or human NSCLC autologous tumor cells were used as target cells. Mouse CD8+ enriched T cells from gp100-stimulated Pmel splenocytes or human NSCLC TILs were used as effector cells. Target tumor cells were co-cultured with effector cells in 96-well round-bottom microplates at the indicated effector:target ratios with and without Sirt6 inhibitor. After 6 hr, the percentage of specific LDH release was calculated according to the following formula: % cell lysis=(experimental value−effector cells spontaneous release−target cells spontaneous release)×100/(target cells maximum release−target cells spontaneous release), where “experimental” corresponds to the experimental signal value, “effector spontaneous” to spontaneous release of LDH from effector cells alone, “target spontaneous” to spontaneous release of LDH from target cells alone and “maximum release” to the maximum release of LDH from target cells in medium containing 1% Triton X-100.

[3] = system: activated CD3+ T cells; test: Seahorse extracellular flux analysis (ECAR/OCR) of activated CD3+ T cells; format: cell-based, mouse
Description: Spleens and/or lymph nodes (LN) were collected from C57BL/6J, Pmel and OT-II mice and were processed into single-cell suspensions. CD3+, CD4+ and CD8+ T cells were negatively enriched using Mouse Pan T cell, CD4^+ T cell and CD8^+ T Cell Isolation Kits™, respectively according to the manufacturer's instructions. The purity of the isolated cells was confirmed by flow cytometry (>95%). Purified T cells were cultured in complete RPMI 1640 medium (Thermo Fisher Scientific) supplemented with 10% (vol/vol) fetal bovine serum (FBS, Biowest) and 1% (vol/vol) penicillin/streptomycin (P/S, Thomas Scientific Inc.). T cells were activated with plate-bound anti-CD3 antibody (5 μg/ml, 145-2C11, BioXCell) for the indicated time periods. […]
Extracellular acidification rate (ECAR) and oxygen consumption rate (OCR) were measured using the Seahorse XF analyzer (Agilent technologies). […] For GST, ECAR and OCR were measured under basal conditions and in response to 10 mM glucose, 1 μM oligomycin and 50 mM 2-DG successively to calculate basal glycolytic rate, glycolytic capacity (in response to oligomycin), and glycolytic reserve (glycolytic capacity-basal rate). […] Results were normalized to total protein quantified using Pierce™ BCA Protein Assay Kit (Thermo Fisher Scientific).

[4] = system: stimulated CD8+ T cells from WT vs. Sirt2−/− Pmel mice; test: Seahorse ECAR of stimulated CD8+ T cells from WT vs. Sirt2−/− Pmel mice; format: cell-based, mouse; conditions: FIG. 3B
Description: as §1
Extracellular acidification rate (ECAR) and oxygen consumption rate (OCR) were measured using the Seahorse XF analyzer (Agilent technologies). Glycolysis Stress Test (GST) and mitochondrial stress test (MST) were purchased from Agilent technologies and performed according to the kit manufacturer's instructions. […] For GST, ECAR and OCR were measured under basal conditions and in response to 10 mM glucose, 1 μM oligomycin and 50 mM 2-DG successively to calculate basal glycolytic rate, glycolytic capacity (in response to oligomycin), and glycolytic reserve (glycolytic capacity-basal rate). For MST, OCR and ECAR were measured under basal conditions and in response to sequential injections of 1 μM oligomycin, 1 μM FCCP (Carbonyl cyanide 4-trifluoromethoxyphenylhydrazone) and 0.5 μM rotenone/antimycin A to calculate basal respiration rates (baseline OCR-rotenone/antimycin A OCR), maximal respiration (FCCP OCR-rotenone/antimycin A OCR), and oxidative reserve (maximum respiration rate-basal respiration rate). […]

[5] = system: Pmel T cells stimulated with gp100; test: Intracellular granzyme B staining by flow cytometry; format: cell-based, mouse; conditions: activated Pmel T cells, OSS vs. DMSO, FIG. 7B
Description: For intracellular cytokine staining, cells were firstly stimulated with phorbol 12-myristate 13-acetate (PMA, 10 ng/ml, Sigma) and ionomycin (1 μM/ml, Sigma) for 1 hour followed by GolgiPlug™ treatment (1% c, BD Biosciences) for 6 h and then stained with IFN-γ (BV711, BD Biosciences) and Granzyme B (Alexa647, Biolegend). Cells were acquired on a BD FACSymphony™ A5 and LSR II (Becton Dickinson), and data were analyzed with FlowJo software Version 10.0 software.

[6] = system: OT-II and Pmel T cells; test: CFSE proliferation assay; format: cell-based, mouse; conditions: upon antigenic stimulation ex vivo, 3 days, FIG. 7A
Description: Pmel cells and OT-II cells were first labelled with 5 μM of CellTrace™ carboxyl fluorescein succinimidyl ester (CFSE, Thermo Fisher Scientific) for 30 min at room temperature (RT) and then stimulated with gp100 or remained non-stimulated with and without Sirt6 inhibitor (OSS) for 3 days.

[7] = system: activated CD3+ T cells; test: RT-PCR mRNA levels in activated T cells; format: cell-based, mouse
Source text: Total RNA was extracted using the RNeasy Mini Kit (Qiagen; cat. #74106) and reverse transcribed using iScript™ (Biorad). cDNAs were amplified using the “SsoAdvanced™ Universal SYBR® Green Supermix” kit (Biorad) in the CFX Connect™ Real-Time System (Biorad). Sense and antisense primers used were for mouse Sirt6, GLUT1, HK, PFK, LDH, GLS and ASCT2 (primers designed by Biorad and provided as a mixture, PrimePCR™ SYBR® Green Assay).

[8] = activated CD3+ T cells, FIG. 8K

O=C(Nc1ccc(O)c(C(=O)O)c1)c1cccc(NC(=O)c2ccco2)c1 [OSS_128167]
effector function of T cells (IFN-γ ELISPOT) [1]: increases
TIL cytotoxic activity [2]: enhanced
glycolytic flux (ECAR) ([3]; CD3-stimulated CD3+ T cells, OSS 25 μM or 50 μM vs. vehicle (DMSO), FIG. 6A): profoundly increased
SRC in response to the mitochondrial decoupling agent (FCCP) (OCR) ([3]; activated T cells, pharmacologic inhibition, FIG. 6G): increase
effect on metabolic activity (ECAR) with Sirt2 deficiency ([4]; Sirt2−/− Pmel CD8+ T cells): potentiated
metabolic activity of T cells (ECAR) ([4]; activated T cells, Sirt6i vs. vehicle): increases
granzyme B expression [5]: increases
proliferation (CFSE dilution) [6]: increased
mRNA expression levels of glutaminase (GLS) [7, 8]: increased
mRNA expression levels of glutamine transporter (ASCT2) [7, 8]: increased
mRNA expression levels of glucose transporter (Glut1) ([7]; activated T cells, FIG. 8G): increased
mRNA expression levels of hexokinase (HK1) ([7]; activated T cells, FIG. 8G): increased
mRNA expression levels of lactate dehydrogenase A (LDHA) ([7]; activated T cells, FIG. 8G): increased
mRNA expression levels of phosphofructokinase P (PFKP) ([7]; activated T cells, FIG. 8G): increased

From patent US20250000907A1, “ENGINEERED IMMUNE CELLS WITH REDUCED SIRT6 EXPRESSION” (H. LEE MOFFITT CANCER CENTER AND RESEARCH INSTITUTE, INC., priority 2021, published 2025)
